Results: US10294202B2, “Pyrrolidinones as herbicides” (FMC Corporation, priority 2013, dated 2019)

Tests used:
[1] = test system: monochoria; assay: Test F flood (paddy) test; type: in vivo, Monochoria vaginalis; conditions: 21 d, scale 0-100
From the text: (§1) Three plastic pots (ca. 16-cm diameter) per rate were partially filled with sterilized Tama silt loam soil comprising a 35:50:15 ratio of sand, silt and clay and 2.6% organic matter. Separate plantings for each of the three pots were as follows. Seeds from the U.S. of monochoria (Monochoria vaginalis), sedge, umbrella (small-flower umbrella sedge, Cyperus difformis), bulrush, […] bulrush, Scirpus juncoides), and […] (purple […] coccinea), were planted into one 16-cm pot for each rate. Seeds from the U.S. of flatsedge, rice (rice flatsedge, Cyperus iria), sprangletop, Brdd. (bearded sprangletop, Leptochloa fascicularis), one stand of 9 or 10 water seeded rice seedlings (Rice, W.S. Jap, Oryza sativa cv. 'Japonica-[…]' or Rice, W.S. Ind, 'Indica'), and two stands of 3 or 4 seedlings of rice, transplanted (transplanted rice, Oryza sativa cv. 'Japonica-[…]') were planted into one 16-cm pot for each rate. Seeds from the U.S. of barnyardgrass (Echinochloa crus-galli), […] (common […], Alisma plantago-aquatica), and watergrass, late (late watergrass, Echinochloa oryzicola) were planted into one 16-cm pot for each rate. Plantings were sequential so that crop and weed species were at the 2.0 to 2.5-leaf stage at time of treatment. Potted plants were grown in a greenhouse with day/night temperature settings of 30/27° C., and supplemental balanced lighting was provided to maintain a 16-h photoperiod. Test pots were maintained in the greenhouse until test completion. At time of treatment, test pots were flooded to 3 cm above the soil surface, treated by application of test compounds directly to the paddy water, and then maintained at that water depth for the duration of the test. Effects of treatments on rice and weeds were visually evaluated by comparison to untreated controls after 21 d. Plant response ratings, summarized in Table F, are based on a scale of 0 to 100 where 0 is no effect and 100 is complete control. A dash (-) response means no test result.

[2] = test system: watergrass, late; assay: Test F flood (paddy) test; type: in vivo, Echinochloa oryzicola; conditions: 21 d, scale 0-100
From the text: as §1

[3] = test system: sedge, umbrella; assay: Test F flood (paddy) test; type: in vivo, Cyperus difformis; conditions: 21 d, scale 0-100
From the text: as §1

[4] = test system: flatsedge, rice; assay: Test F flood (paddy) test; type: in vivo, Cyperus iria; conditions: 21 d, scale 0-100
From the text: as §1

[5] = test system: waterhemp; assay: Test E preemergence herbicide test; type: in vivo, Amaranthus rudis; set-up: key: 0 = no effect, 100 = complete control
From the text: (§2) Seeds of plant species selected from corn (Zea mays), soybean (Glycine max), velvetleaf (Abutilon theophrasti), lambsquarters (Chenopodium album), wild poinsettia (Euphorbia heterophylla), pigweed, palmer (palmer pigweed, Amaranthus palmeri), waterhemp (common waterhemp, Amaranthus rudis), surinam grass (Brachiaria decumbens), crabgrass, large (large crabgrass, Digitaria sanguinalis), crabgrass, Brazil (Brazilian crabgrass, Digitaria horizontalis), panicum, fall (fall panicum, Panicum dichotomiflorum), foxtail, giant (giant foxtail, Setaria faberii), foxtail, green (green foxtail, Setaria viridis), goosegrass (Eleusine indica), johnsongrass (Sorghum halepense), ragweed (common ragweed, Ambrosia elatior), barnyardgrass (Echinochloa crus-galli), sandbur (southern sandbur, Cenchrus echinatus), arrowleaf […] rhombifolia), ryegrass, Italian (Italian ryegrass, Lolium multiflorum), dayflower, VA (Virginia dayflower, Commelina virginica), field bindweed (Convolvulus arvensis), morningglory (Ipomoea coccinea), nightshade (eastern black nightshade, Solanum ptycanthum), kochia (Kochia scoparia), nutsedge, yellow (yellow nutsedge, Cyperus esculentus), cocklebur (common cocklebur, Xanthium strumarium), smartweed (ladysthumb smartweed, Polygonum Persicaria) and beggarticks (hairy beggarticks, Bidens pilosa), were planted into a silt loam soil and treated preemergence with test chemicals formulated in a non-phytotoxic solvent mixture which included a surfactant. Treated plants and controls were maintained in a greenhouse for 21 days, after which time all species were compared to controls and visually evaluated. Plant response ratings, summarized in Table E, are based on a scale of 0 to 100 where 0 is no effect and 100 is complete control. A dash (-) response means no test result.

[6] = test system: panicum, fall; assay: Test E preemergence herbicide test; type: in vivo, Panicum dichotomiflorum; set-up: key: 0 = no effect, 100 = complete control
From the text: as §2

[7] = test system: johnsongrass; assay: Test E preemergence herbicide test; type: in vivo, Sorghum halepense; set-up: key: 0 = no effect, 100 = complete control
From the text: as §2

[8] = test system: cocklebur; assay: Test E preemergence herbicide test; type: in vivo, Xanthium strumarium; set-up: key: 0 = no effect, 100 = complete control
From the text: as §2

Row | SMILES | Plant response rating, Monochoria ([1]; 125 g ai/ha) | Plant response rating, Monochoria ([1]; 250 g ai/ha) | Plant response rating, Monochoria ([1]; 500 g ai/ha) | Plant response rating, Watergrass, Late ([2]; 125 g ai/ha) | Plant response rating, Watergrass, Late ([2]; 250 g ai/ha) | Plant response rating, Watergrass, Late ([2]; 500 g ai/ha) | Plant response rating, Waterhemp ([5]; 31 g ai/ha) | Plant response rating, Waterhemp ([5]; 62 g ai/ha) | Plant response rating, Waterhemp ([5]; 125 g ai/ha) | Plant response rating, Waterhemp ([5]; 250 g ai/ha) | Plant response rating, Panicum, Fall ([6]; 31 g ai/ha) | Plant response rating, Panicum, Fall ([6]; 62 g ai/ha) | Plant response rating, Panicum, Fall ([6]; 125 g ai/ha) | Plant response rating, Panicum, Fall ([6]; 250 g ai/ha) | Plant response rating, Johnsongrass ([7]; 31 g ai/ha) | Plant response rating, Johnsongrass ([7]; 62 g ai/ha) | Plant response rating, Johnsongrass ([7]; 125 g ai/ha) | Plant response rating, Johnsongrass ([7]; 250 g ai/ha) | other results
1 | O=C1NCC(c2cccc(C(F)(F)F)c2)C1C(=O)Nc1ccc(F)cc1F (racemic) [Compound 207] | 65 | 100 | 100 | 65 | 85 | 90 | – | – | – | – | – | – | – | – | – | – | – | – | –
2 | O=C1NCC(c2ccc(C(F)(F)F)c(F)c2)C1C(=O)Nc1cccc(F)c1F (racemic) [Compound 247] | 70 | 70 | 75 | 65 | 65 | 70 | – | – | – | – | – | – | – | – | – | – | – | – | Plant response rating, Monochoria ([1]; 1000 g ai/ha): 75; Plant response rating, Monochoria ([1]; 2000 g ai/ha): 75; Plant response rating, Sedge, Umbrella ([3]; 125 g ai/ha): 0; Plant response rating, Sedge, Umbrella ([3]; 250 g ai/ha): 0; Plant response rating, Sedge, Umbrella ([3]; 500 g ai/ha): 0; Plant response rating, Sedge, Umbrella ([3]; 1000 g ai/ha): 0; Plant response rating, Sedge, Umbrella ([3]; 2000 g ai/ha): 0; Plant response rating, Flatsedge, Rice ([4]; 125 g ai/ha): 0; Plant response rating, Flatsedge, Rice ([4]; 250 g ai/ha): 0; Plant response rating, Flatsedge, Rice ([4]; 500 g ai/ha): 0; Plant response rating, Flatsedge, Rice ([4]; 1000 g ai/ha): 0; Plant response rating, Flatsedge, Rice ([4]; 2000 g ai/ha): 35; Plant response rating, Watergrass, Late ([2]; 1000 g ai/ha): 85; Plant response rating, Watergrass, Late ([2]; 2000 g ai/ha): 90
3 | O=C1NCC(c2cccc(Br)c2)C1C(=O)Nc1ccccc1F (stereo not shown) [Compound 66] | – | – | – | – | – | – | 0 | 0 | 0 | 0 | 0 | 0 | 0 | 0 | 0 | 0 | 0 | 0 | Plant response rating, Waterhemp ([5]; 16 g ai/ha): 0; Plant response rating, Panicum, Fall ([6]; 16 g ai/ha): 0; Plant response rating, Johnsongrass ([7]; 16 g ai/ha): 0; Plant response rating, Cocklebur ([8]; 16 g ai/ha): 0; Plant response rating, Cocklebur ([8]; 31 g ai/ha): 0; Plant response rating, Cocklebur ([8]; 62 g ai/ha): 0
4 | O=C1NCC(c2ccc(C(F)(F)F)cc2)C1C(=O)Nc1ccc(F)c(F)c1F (stereo not shown) [Compound 232] | – | – | – | – | – | – | 35 | 80 | 85 | 95 | 35 | 50 | 50 | 60 | 0 | 0 | 0 | 25 | –
5 | CN1CC(c2ccc(F)cc2)C(C(=O)Nc2cccc(F)c2F)C1=O (stereo not shown) [Compound 271] | 100 | 100 | 100 | 75 | 100 | 100 | – | – | – | – | – | – | – | – | – | – | – | – | Plant response rating, Monochoria ([1]; 64 g ai/ha): 85; Plant response rating, Watergrass, Late ([2]; 64 g ai/ha): 45
